# In patent US8258295B2, “Triazine derivatives, compositions containing such derivatives, and methods of treatment of cancer and autoimmune diseases using such derivatives” (Prometic Biosciences Inc., priority 2007, dated 2012):
# Key:
# [1] = system: PC-3 cells; assay: In vitro PC-3 cell adhesion to extracellular matrix components; format: cell-based, human; details: different concentrations
# Procedure: An in vitro cell adhesion assay was used to assess the effect of the compounds on cancer cell adhesion. Microtiter 96-well plates were coated for 1 hr at room temperature with […] of adhesive ligands previously diluted to 5 μg/ml for laminin, 10 μg/ml for MATRIGEL™ basement membrane matrix, or 10 μg/ml for collagen in PBS. The wells were blocked with a solution of 1% BSA in PBS (100 μl/well) for 1 hr at 37° C. Subconfluent cultures of PC-3 cells were incubated with a 5 μM solution of calcein-AM for 30 min at 37° C., and then free calcein-AM was washed out (30 min) by incubation of the PC-3 cells in media without calcein-AM. Calcein-AM-labeled cells were trypsinized, washed, and resuspended in adhesion buffer (RPMI-1640, 10% FBS supplemented with 1 mM of MgCl2). Labeled PC-3 cells were preincubated in absence or presence of compounds for 30 min and then a final volume of 100 μl of preincubated cells were allowed to attach at 37° C. in a humidified incubator for 15 min, 30 min, or 60 min at 37° C. Nonattached cells were removed by two washes with PBS and attached cells were lysed with 100 μl of a 1% Triton X-100 solution in PBS. Plates were read on a Tecan GENios Plus fluorescent reader with an excitation wavelength of 485 nm and an emission wavelength of 530 nm. The number of attached cells was calculated based upon standard curves. Nonspecific cell attachment (attachment to wells coated with BSA) was always less than 5%.
# [2] = system: experimental autoimmune encephalomyelitis (EAE); assay: PLP-induced experimental autoimmune encephalomyelitis (EAE) in SJL mice; format: in vivo
# Procedure: The PLP-induced experimental autoimmune encephalomyelitis (EAE) mouse model serves as a model of multiple sclerosis. On day O, SJL mice were immunized with 75 μg of PLP (139-151) emulsified in Freund's complete adjuvant (200 μl emulsion per mouse s.c. divided among four sites) and with pertussis toxin (200 ng, i.p.). The i.p. injection of pertussis toxin was repeated on day 2. Compound V was administered orally once a day at 25 mg/kg and 50 mg/kg, starting at day 0 and until 30 days post immunization, six times a week. […] Clinical grading of symptoms was carried out according to the following scale: 0=no illness, 1=flaccid tail, 2=moderate paraparesis, 3=severe paraparesis, 4=moribound state, 5=death.
structure (smiles),measurement,setting,value
NCCCCCNc1nc(NCCc2ccc(O)cc2)nc(Nc2ccc(F)cc2)n1 [Compound V],PC-3 cell adhesion to laminin,[1]; FIG. 1A,inhibits PC-3 cells adhesion in a dose dependent fashion
same,PC-3 cell adhesion to MATRIGEL basement membrane matrix,[1]; FIG. 1B,inhibits PC-3 cells adhesion in a dose dependent fashion
same,PC-3 cell adhesion to collagen,[1]; FIG. 1C,inhibits PC-3 cells adhesion in a dose dependent fashion
same,activity on clinical signs of EAE,"[2]; oral 50 mg/kg, vs vehicle",significant activity
same,appearance of clinical signs of EAE,"[2]; oral once a day, 25 mg/kg and 50 mg/kg, until 30 days, FIG. 23",reduces in a dose dependent manner the appearance of signs of EAE
